{"source": "patent US8048869B2", "about": "“Pharmaceutical composition for use in hormone replacement therapy” (Pantarhei Bioscience B.V., priority 2001, dated 2011)", "key": {"[1]": {"target": "T1, human sex Hormone Binding Globulin (SHBG) (Homo sapiens, UniProt P04278)", "T1 construct": "Human SHBG was purified from transgenic mouse serum, as described previously; from tissue; host or cells: serum of mice transgenic for human SHBG", "T1 sequence (P04278 30-402)": "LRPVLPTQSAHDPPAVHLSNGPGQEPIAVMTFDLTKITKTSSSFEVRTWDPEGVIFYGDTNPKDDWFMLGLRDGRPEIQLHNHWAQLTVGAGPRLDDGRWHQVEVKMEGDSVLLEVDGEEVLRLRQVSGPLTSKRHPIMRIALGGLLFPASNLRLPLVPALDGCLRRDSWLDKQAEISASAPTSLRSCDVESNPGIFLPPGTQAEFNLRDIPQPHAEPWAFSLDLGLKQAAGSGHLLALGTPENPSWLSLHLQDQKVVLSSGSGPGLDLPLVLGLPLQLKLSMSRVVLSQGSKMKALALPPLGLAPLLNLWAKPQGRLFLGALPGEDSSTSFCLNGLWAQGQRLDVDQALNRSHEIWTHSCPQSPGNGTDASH", "test": "Competitive steroid-binding assay, SHBG", "conditions": "[3H]DHT or [3H]estradiol as labeled ligands (FIG. 6)", "protocol": "Human SHBG was treated for 30 min at room temperature with a dextran-coated charcoal (DCC) suspension in phosphate buffered saline (PBS) to remove any steroid ligand. After centrifugation (2,000×g for 10 min) to sediment the DCC, the supernatant containing the human SHBG was diluted in PBS to a concentration of 1 nM based on its steroid binding capacity.\nAfter incubation for 1 h at room temperature the. reaction mixtures were placed in an ice bath for a further 15 muin. […] The average amounts of [^3H]labeled ligands bound to SHBG at each concentration of competitor (B) were expressed as a percentage of the average amounts of [^3H]labeled ligands bound to SHBG in the absence of competitor (B0), and were plotted against the concentration of competitor in each assay tube."}, "OVX-rats [2]": {"system": "OVX-rats", "test": "Indentation test of distal femur (bone biomechanical strength), OVX rat", "format": "in vivo", "conditions": "po, 0.1 mg/kg/day, 4 weeks, distal femur", "protocol": "(§1) The ovariectomized aged rat was used as a model for the human disease osteoporosis. This is an established animal model, recommended by the United States Food and Drug Administration (FDA), to evaluate and assess potential agents for osteoporosis prevention and therapy. The anti-resorptive efficacy of estetrol (E4) was tested by ex vivo measuring total and trabecular bone mineral density and bone strength after 4 weeks of treatment at necropsy. 17α-ethinyl-estradiol (EE) and vehicle (1% ethanol/arachidis oil) served as controls in this bioassay.\n(§2) Three months old female Sprague-Dawley rats were either sham-operated (Sham) or ovariectomized (OVX) one day prior to commencement of the dosing study. Animals were anesthetized using a ketamine/xylazine anesthetic mixture and underwent a bilateral ovariectomy or were sham-treated. A section of hair on the dorsal surface was shaved and an incision made overlying the lumbar region of the spine. The skin was separated from the underlying fascia so that a second incision could be made through the abdominal musculature approximately caudal to the kidneys. The ovaries were then exteriorized and removed and the musculature was closed with a single suture. The skin incision was closed using surgical staples.\n(§3) Ten animals per treatment group were orally dosed once per day for four consecutive weeks. The dosing commenced 1 day after surgical removal of the ovaries and was administered by oral gavage using a syringe and stainless steel gavage needle at doses of 0.1 mg/kg /day EE, or either 2.5, 0.5 or 0.1 mg/kg/day E4. Vehicle control was daily administered to one group of OVX-animals and sham-operated rats. After treatment, anesthetized rats were subjected to cardiac puncture and asphyxiated by CO2 inhalation. Tibiae and femura were removed, cleaned of soft-tissue and fixed and stored in 70% ethanol/saline at 4° C. (tibia) or saline at 4° C. (femura) until fuirther analysis.\nEx vivo evaluation of bone biomechanical strength was performed with an indentation test at the distal femura. Prior to mechanical testing femura were rinsed in cold saline and carefully cleaned of any remaining adherent soft tissue. A 3-mm segment of the distal femoral metaphysis was cut directly proximal to the femoral condyle with a low-speed diamond saw under constant saline irrigation. The load was applied with a cylindrical indenter (with a flat testing face of 1.6 mm diameter) to the center of marrow cavity on the distal face of the segment. The indenter was allowed to penetrate the cavity at a constant displacement of 6 mm/min to a depth of 2 mm before load reversal.\nThe maximum load, stiffness and energy absorbed were determined from load displacement curves. Ultimate strength was calculated by dividing the maximum load by the indenter area. Furthermore, mean ultimate strength values are depicted in FIG. 2. […] Reductions in maximum load, stiffness, energy and ultimate strength were −68%, −68%, −27% and −68%, respectively, clearly accompanying the bone mineral density loss in estrogen deficient rats."}, "OVX-rats [3]": {"system": "OVX-rats", "test": "pQCT densitometry of proximal tibiae, ovariectomized aged rat osteoporosis model", "format": "in vivo", "conditions": "po, 0.1 mg/kg/day, 4 weeks, proximal tibiae", "protocol": "as §1, §2\nas §3, with “The dosing commenced 1 day after surgical removal of the ovaries and was administered by oral gavage using a syringe and stainless steel gavage needle at doses of 0.1 mg/kg /day EE, or either 2.5, 0.5 or 0.1 mg/kg/day E4.” left out\nEx vivo peripheral Quantitative Computed Tomography (pQCT) was performed on the excised left tibiae using a Stratec XCT-RM and associated software (Stratec Medizintechnik GmbH, Pforzheim; Germany, software version 5.40). The scans were performed at 12% of the total length from the proximal end of the tibiae. The positions were verified using scout views and one 0.5-mm slice perpendicular to the long axis of the tibial shaft was acquired from each site. The scans were analyzed using a threshold for delineation of the external boundary. The total and trabecular bone mineral content, area and density at each site were determined. Furthermore, pQCT data for mean total bone mineral density are depicted in FIG. 1."}}, "data": [{"smiles": "C[C@]12CCC(=O)C[C@@H]1CC[C@@H]1[C@@H]2CC[C@]2(C)[C@@H](O)CC[C@@H]12", "note": "[5α-dihydrotestosterone]", "values": [{"measurement": "relative binding affinity for human SHBG", "setting": "[1]", "result": "in this order, show an increased relative binding affinity"}]}, {"smiles": "C[C@]12CC[C@H]3[C@@H](CCC4=CC(=O)CC[C@@]43C)[C@@H]1CC[C@@H]2O", "note": "[testosterone]", "values": [{"measurement": "relative binding affinity for human SHBG", "setting": "[1]", "result": "in this order, show an increased relative binding affinity"}]}, {"smiles": "C#C[C@]1(O)CC[C@H]2[C@@H]3CCc4cc(O)ccc4[C@H]3CC[C@@]21C", "note": "[EE, 17α-ethinyl estradiol, reference compound]", "values": [{"measurement": "Energy", "setting": "OVX-rats [2]", "result": 0.53, "unit": "mJ"}, {"measurement": "Maximum load", "setting": "OVX-rats [2]", "result": 9.05, "unit": "N"}, {"measurement": "Stiffness", "setting": "OVX-rats [2]", "result": 169.12, "unit": "N/mm"}, {"measurement": "Ultimate strength", "setting": "OVX-rats [2]", "result": 4.80, "unit": "N/mm2"}, {"measurement": "Mean Total Bone Mineral Area", "setting": "OVX-rats [3]", "result": 13.87, "unit": "mm^2"}, {"measurement": "Mean Total Bone Mineral Content", "setting": "OVX-rats [3]", "result": 9.66, "unit": "mg/mm"}, {"measurement": "Mean Total Bone Mineral Density", "setting": "OVX-rats [3]", "result": 697.48, "unit": "mg/mL"}, {"measurement": "Mean Trabecular Bone Mineral Area", "setting": "OVX-rats [3]", "result": 6.24, "unit": "mm^2"}, {"measurement": "Mean Trabecular Bone Mineral Content", "setting": "OVX-rats [3]", "result": 1.81, "unit": "mg/mm"}, {"measurement": "Mean Trabecular Bone Mineral Density", "setting": "OVX-rats [3]", "result": 290.16, "unit": "mg/mL"}]}]}
